# Measurements: patent US20260000763A1, “Methods of Manufacturing Therapeutic Cells” (The Board of Trustees of the Leland Stanford Junior …, priority 2022, published 2026)
# Experiments:
# [1] = tested on: GD2-CAR T cells; experiment: GD2-CAR T cells manufactured in TexMACS with increasing concentrations of INO; assay type: cell-based
# Protocol: FIG. 13A-13H: Clinical scale manufacturing of clinical grade GD2-CAR T cells using media containing inosine, improves CAR product quality. A: Schematic of large-scale manufacturing of GD2.bbz-CAR+ T cells in a semi-closed G-Rex system in glucose-or inosine-containing media. 7 days post-activation, transduction efficiency, percentage of viable cells, and CD4/CD8 ratio of GD2+ cells were assessed by flow cytometry. […] B: Expansion of total viable T cells manufactured in control (black) vs. inosine (green)-containing media and (Right) corresponding number of CAR+ cells at day 7. […] C: IL-2 and IFNg secretion by CAR T cells stimulated for 24 hrs with 143b, mg63.3 or Nalm6-GD2 tumor lines. […] D: NSG mice were injected with 1×10^6 Nalm6 leukemia cells. On day 3 post-tumor injection, 2×10^6 of mock or GD2.bbz-CAR T cells manufactured in the presence of inosine or in regular media were transferred intravenously. Tumor growth was monitored by bioluminescent imaging. […] P values determined at day 43 by using Mann-Whitney test. […] E: Concentration of CD45+ T cells detected in blood of mice at D33 post-CAR T cell injection. […] F: Schematic of the experimental design. G: GD2.bbz-CAR T cells grown in media containing indicated inosine concentration between day 3 and day 10 post-activation and stimulated with 143b tumor. IL-2 and IFNg secretion after 24 hrs of co-culture was measured. Data are mean±s.d. of duplicate or triplicate wells. Representative of n=3 donors shown. […] Reprograming is due to an increase in glutaminolysis and polyamine synthesis and downregulation of CD73, FOXP3, A2aR and c-AMP response transcription factors.
# Finally, to test compatibility of adding INO to GMP-grade culture media that contains glucose, GD2-CAR T cells were manufactured in TexMACS™ with increasing concentrations of INO (FIG. 13F).
# [2] = tested on: CD19.28 CAR T cells; experiment: CD19.28 CAR T cells expanded in inosine vs glucose media: Annexin V, CAR expression, CD4/CD8, memory phenotype (flow cytometry); assay type: cell-based
# Protocol: (§1) In this example, CD19.28 CAR T cells were cultured in regular complete RPMI media until day 4, and then the cells were split between 11 mM glucose-(CTR) or 11 mM inosine-(INO) containing media (unless stated otherwise). A: Annexin 5 staining was performed at day 17 post-activation. Representative histograms of n=3 donors are shown. B: Surface CD19.28 CAR expression at day 14 post-activation. C: MFI of CAR molecules on CD19.28z CAR T cell surface at day 14 post activation. D: Ratio of CD4+vs CD8+CD19.28 CAR T cells at day 14 post-activation. E: CD19.28z CAR T cells were co-cultured with cells of the Nalm6 tumor line (1:8 E: T) for 75 hrs in an IncuCyte assay. […] Representative donor of n=3 is shown. F: Control media was replaced by INO+ media at the indicated day post activation. At day 14, cells were stimulated with Nalm6 tumor line, and IL-2 and IFNγ secretion was assessed by ELISA. […] For A and B, P values were determined by paired two-tailed t-tests. […] For F and G, P values were determined by unpaired two-tailed t-tests.
# In this example, CAR T cells were cultured in control media until day 4 post activation, followed by continued expansion in regular or inosine-containing media. Phenotype of the cells was assessed by flow cytometry at day 21 post activation. A: Frequency of CD62L+ and CCR7+HA CAR+ T cells in 8 different donors. Representative histograms are shown. B: Relative frequency of central memory (CM), naïve, terminally differentiated (TEMRA) and effector memory (EM) HA CAR T cells. N=8 donors. C: Frequency of CD62L+ and CCR7+CD19.28 CAR+ T cells in 8 different donors. Representative histograms are shown. D: Relative frequency of central memory (CM), naïve, terminally differentiated (TEMRA) and effector memory (EM) CD19.28 CAR T cells. N=8 donors.
# (§2) In this example, CD19.28 CAR T cells were generated using a retroviral vector and at day 4 post-activation, the cells were split between 11 mM glucose-(CTR) or 11 mM inosine-(INO) containing media (unless stated otherwise). Tested first was whether the absence of glucose in the culture media has a negative effect on the viability of CAR T cells.
# [3] = tested on: HA-CAR T cells and CD19-CAR T cells; experiment: Seahorse analysis of mitochondrial fitness; cell size; assay type: cell-based
# Protocol: To measure mitochondrial fitness in CAR T cells cultured in the presence or absence of INO, Seahorse analysis was performed.
# [4] = tested on: Nalm6 tumor line; experiment: Co-culture of CD19.28 CAR T cells with Nalm6: IncuCyte killing and cytokine ELISA; assay type: cell-based
# Protocol: as §1, §2
# Tumor antigen density is one of the most important factors affecting the efficacy of CAR T immunotherapy. Therefore, assessed next was whether growing CAR T cells in inosine-containing media improves their effector function against low antigen expressing tumor lines.
# [5] = tested on: CD8+ HA-CAR T cells; experiment: ATACseq chromatin accessibility of CD8+ HA- and HA-INO-CAR T cells (ChromVAR, HOMER); assay type: cell-based, human
# Text: Concatenated samples from n=3 donors. […] (Left) Dot plots of representative donor shown.
# [6] = day 14, 11 mM inosine vs glucose
compound,measurement,setting,value
"O=c1[nH]cnc2c1ncn2[C@@H]1O[C@H](CO)[C@@H](O)[C@H]1O [inosine, Inosine]",antigen induced cytokine production,[1]; INO 11 mM vs lower concentrations,trend toward greater antigen induced cytokine production
same,cell proliferation,[1]; TexMACS (contains glucose) with increasing INO,significantly decreased cell proliferation
same,CAR T cell viability,[1]; TexMACS with increasing INO,no changes
same,secretion of IL-2 and IFNg,"[1]; challenged with 143b cells, 24 hrs, INO day 3 to day 10",dose-dependent increase
same,CD62L expression,[1]; vs control cells,increased CD62L expression
same,percentage of live cells,"[2]; CD19.28 CAR T cells, 11 mM inosine vs 11 mM glucose, day 17",increase
same,frequency of Annexin V+ apoptotic cells,"[2]; CD19.28 CAR T cells, 11 mM inosine without glucose from day 4, vs 11 mM glucose, day 17 post-activation",significantly lower frequency
same,CAR MFI,"[2]; CD19.28z CAR T cell surface, day 14, 11 mM inosine vs glucose",increased
same,CD4/CD8 ratio,[2]; [6],neither percentage of CAR+ T cells nor CD4/CD8 ratio was affected
same,percentage of CAR+ T cells,[2]; [6],neither percentage of CAR+ T cells nor CD4/CD8 ratio was affected
same,metabolic profile of non-tonic signaling CD19-CAR T cells,"[3]; Seahorse, day 11",memory-like metabolic profile
same,basal oxygen consumption rate (Basal OCR),"[3]; day 11, control vs INO cultured cells",did not differ
same,size of the cells,[3]; day 13 post-activation,increased size
same,tumor killing,"[4]; Nalm6, 1:8 E:T, 75 hrs IncuCyte, cells expanded in 11 mM inosine vs glucose",increased tumor killing
same,secretion of IFNγ,"[4]; Nalm6 expressing medium or low levels of surface CD19, day 14",significantly increased secretion
same,"effector cytokine secretion (IL-2, IFNγ)","[4]; stimulated with Nalm6 at day 14, ELISA",increased
same,"accessibility of RUNT, IRF and RHD family TF binding motifs",[5]; ChromVAR and HOMER,increased accessibility
same,genomic regions with changed chromatin accessibility,"[5]; D14 CD8+ cells, three individuals","more than 10,000 genomic regions"
same,PC1 variance,[5]; PCA of ATACseq,57%
